In US20250360130A1, “METHODS OF TREATING INDOLENT SYSTEMIC MASTOCYTOSIS” (Telios Pharma Inc., priority 2024, published 2025):

How the values were obtained:
basophils [1] = test: Basophil Activation Test (BAT), CD63, whole blood; assay type: cell-based, human; conditions: 24 hours versus 2 hours drug exposure
Procedure: (§1) The BAT was conducted as set forth in Santos (2021) Allergy, 76:2420-2432. Blood from six healthy donors was drawn and Compound 128 was added at various concentrations (10 μM, 3.16 μM, 1 μM, 0.3 μM, 0.1 μM, 0.03 μM, or 0 μM). Blood samples were gently rocked at room temperature for 2 hours, 24 hours, or 48 hours. The BAT assay using the Flow Cast Basophil Activation Kit (Buhlmann Diagnostics; Catalog #B-CCR-STCON) was then conducted following manufacturer instructions by (1) stimulating the blood with anti-FcεR stimulation control in stimulation buffer with IL-3 and staining cells for CCR3 and CD63 for 15 minutes at 37° C., (2) lysing red blood cells and fixing cells with Lysing Reagent at room temperature for 10 minutes, (3) washing cells with Wash Buffer, and (4) acquiring data on a flow cytometer. Activated basophils were defined as CCR3+, low side scatter and CD63+. Percent of activated basophils was calculated as number of activated basophils over the total number of basophils. A four-parameter logistic regression was applied to determine the EC50 and EC90.

ISM-like mast cells = test: Antigen-induced degranulation (CD63 and histamine) in ISM-like mast cells; assay type: cell-based, human; conditions: ISM-like (+SCF) mast cells, two hours treatment prior to stimulation
Procedure: Human mast cells were derived from bone marrow CD34+ cells from six healthy donors for up to eight weeks by culturing CD34+ cells in StemSpan SFEM II (Stem Cell Technologies) supplemented with stem cell factor (SCF; 100 ng/mL; R&D System), IL-6 (R&D Systems), IL-3 (R&D Systems) and 1% penicillin/streptomycin (P/S; Gibco) for the first 10 days and in StemSpan SFEM II supplemented with SCF and IL-6 and 1% P/S for the remaining time in culture. […] Supernatant was collected and histamine levels were measured using a Histamine ELISA kit (Eagle Biosciences). […] Percent of activated mast cells was calculated as number of activated mast cells over the total number of mast cells.
Human mast cells were differentiated from bone marrow CD34+ cells from six healthy donors, cultured and sensitized as set forth in Example 4. […] The median fluorescence intensity of phosphorylated BTK was measured. CD63 and histamine levels in these cells were measured and percent activated mast cells were calculated as set forth in Example 4. The percent of stimulated control for pBTK, activated mast cells (CD63+) and histamine levels was calculated. […]

basophils [2] = test: Inhibition of basophil activation (BAT, CD63) in ISM patients; assay type: in vivo, human
Procedure: as §1, with “EC90. […]” for “EC90.”
The BAT assay measuring CD63 used the Flow Cast Basophil Activation Kit method and percent activated basophils were calculated as described in Example 1. Percent inhibition of CD63 activation was calculated as (100−(Sample condition−Unstimulated DMSO control)/(Stimulated DMSO control−Unstimulated DMSO control)×100).

human mast cells = test: ISM-like mast cell chemotaxis towards conditioned media (Transwell); assay type: cell-based; conditions: conditioned media from ISM-like mast cells treated two hours
Procedure: Human mast cells were differentiated from bone marrow CD34+ cells from four healthy donors as set forth in Example 4. Cells were used to produce conditioned media in ISM-like conditions. Conditioned media was the supernatant collected from mast cells cultured with stem cell factor (100 ng/ml), sensitized with NP-IgE (0.1 μg/mL) for 18 hours, treated with Compound 128 for two hours, and stimulated with NP-BSA (antigen; 0.1 μg/mL) for four hours. Migration of mast cells in the top chamber on Transwell […] inserts (Corning) towards the antigen-stimulated conditioned media in the bottom chamber was quantified after four hours using the CellTiter-Glo™ Luminescent Cell Viability Assay Kit (Promega). The amount of luminescence is correlated with live cell numbers. Fold change over the non-activated control was calculated.

mast cells [3] = test: Return of degranulation after Compound 128 exposure and washout (FIG. 18); assay type: cell-based, human; conditions: after Compound 128 exposure, flow cytometry
Text: FIGS. 18A-D show return of degranulation after Compound 128 exposure.

[4] = tested on: mast cell from an ISM patient; test: IgE-mediated calcium influx in ISM patient mast cells (FIG. 17); assay type: cell-based, human; conditions: presence of SCF, prior to antigen stimulation
Procedure: Mast cell from an ISM patient was treated with Compound 128 at 50 mg, 75 mg, 100 mg, and 150 mg BID dose prior to antigen (Ag) stimulation. ISM 3-2 mast cell donor MC 1061-004 C1D8 D39. Experiments performed in the presence of SCF. […] Percent of Control (POC) based on Area-under-Curve above baseline (1st value).

mast cells [5] = test: Downstream signaling proteins in antigen-stimulated mast cells (FIG. 20); assay type: cell-based; conditions: mast cells stimulated with an antigen
BTK = BTK (Homo sapiens, UniProt Q06187); test: BTK phosphorylation in mast cells (FIG. 19); assay type: cell-based; design: endogenous in cells; conditions: correlating with calcium signaling, CD63, CD203c, histamine release
BTK, sequence (Q06187 whole entry): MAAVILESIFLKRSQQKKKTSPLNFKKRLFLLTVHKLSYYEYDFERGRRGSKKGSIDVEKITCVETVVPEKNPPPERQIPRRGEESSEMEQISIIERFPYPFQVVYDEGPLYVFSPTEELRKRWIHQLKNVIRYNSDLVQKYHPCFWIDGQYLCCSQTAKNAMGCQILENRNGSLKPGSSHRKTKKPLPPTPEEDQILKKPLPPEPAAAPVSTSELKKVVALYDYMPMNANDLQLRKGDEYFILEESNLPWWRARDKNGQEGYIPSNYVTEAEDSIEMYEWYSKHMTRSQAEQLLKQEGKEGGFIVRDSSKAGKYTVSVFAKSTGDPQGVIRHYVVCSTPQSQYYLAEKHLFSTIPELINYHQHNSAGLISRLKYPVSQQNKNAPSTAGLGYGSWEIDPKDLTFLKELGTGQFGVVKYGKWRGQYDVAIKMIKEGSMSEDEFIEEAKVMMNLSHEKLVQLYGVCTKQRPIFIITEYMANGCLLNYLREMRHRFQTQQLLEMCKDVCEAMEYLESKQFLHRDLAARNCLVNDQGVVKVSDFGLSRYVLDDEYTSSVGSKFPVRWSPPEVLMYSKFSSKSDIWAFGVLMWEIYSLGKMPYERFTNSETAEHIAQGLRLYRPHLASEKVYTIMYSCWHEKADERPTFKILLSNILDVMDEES

inhibition of BTK phosphorylation in mast cells (BTK): high potency
SMILES: C=CC(=O)N1CCC(F)(CNc2ncnc(N)c2-c2ccc(Oc3ccccc3)cc2)CC1 [Compound 128, 1-(4-(((6-amino-5-(4-phenoxyphenyl)pyrimidin-4-yl)amino)methyl)-4-fluoropiperidin-1-yl)prop-2-en-1-one]
potency increase after 24 hours drug exposure (basophils [1]): approximately 4 fold
IgE-mediated degranulation (CD63 and histamine) (ISM-like mast cells): potently inhibits
inhibition of basophil activation (basophils [2]; 100 mg or 150 mg BID): effective in inhibiting basophil activation
percent inhibition of CD63 activation of basophils, dose dependence (basophils [2]; 50, 75, 100 or 150 mg BID versus placebo): greater inhibition of basophil activation is achieved in ISM patients with greater dosing
chemoattractant activity of mast cells (chemotaxis, fold change over non-activated control) (human mast cells): inhibited
time to restoration of degranulation after inhibition (mast cells [3]): ≤ 24 h
IgE-mediated calcium influx [4]: potently inhibits
activation of multiple downstream signaling proteins (mast cells [5]): can be inhibited
